One assay has as its target TGF-β signaling. The experiment in a line: MLEC luciferase assay (TGF-β activated luciferase, Bright-Glo). The settings on record: purified compounds, 24 hours with TGF-β, read-out: IC50, inhibition of TGF-β (MLEC-based TGF-β inhibition assay). It is filed as cell-based, mink. As to the method: A total of 3840 fractions, plated on 12 384-well plates, were assayed in a high throughput screen at 10 μM final concentration. For purposes of concentration calculations we set the average molecular weight of each compound in the library at 500 Da. Each fraction had its different mass, therefore different volumes were used for each well in the screening. Z′ for the plates were between 0.53 and 0.45. Initial hits were identified as compounds that inhibited the Bright-Glo signal (see below MLEC assay) by more than 84%. Using this criteria, we identified 48 compounds of interest. The 48 initial hits were then re-screened in a 10 point dose response curve in duplicate. The compounds were assayed for both luciferase inhibition and toxicity using CellTiter-Glo (Promega). Of the 48 compounds identified in the HTS assay, 19 inhibited TGF-β activated luciferase activity without inducing mink lung cell toxicity. MLEC were plated into 384-well plates at a density of 5000 cells/well using Micro-flow (Biotek) multi well reagent dispenser and incubated overnight at 37° C. in the CO2 incubator. 1 μM control SB431542 or 10 μM of compounds 1-5 were added to the wells using the ECHO 550 (Labcyte), then added 10 μL media with […] TGF-β using Micro-flow and incubated for 24 hours at 37° C. 25 μL Bright-Glo (Promega) was added using Micro-flow, and agitated for 4 minutes. The Enspire (Perkin Elmer) plate reader was used to measure the TGF-β response in each well. The luciferase activity was reported as relative light units (RLU), and the readout of each tested fraction was then normalized against negative controls. Dose-response TGF-β data and cytotoxicity assays using fibroblasts were employed to more rigorously evaluate the 48 initial hits. […] Chemical analysis of the secondary metabolites in the active wells/extract fractions of WMMA2266 led to the discovery of five pyrimidinedione derivatives, biemamides A-E (1-5).

Another assay deals with NMuMG epithelial cells. The experiment in a line: TGF-β induced EMT in NMuMG cell line (imaging assay). The settings on record: 50 pM TGF-β, 72 h. It counts as cell-based, mouse. Here is the method: Mouse mammary epithelial cell line NMuMG was purchased from American Tissue Culture Collection (ATCC, Manassas, Va.), and NMuMG were cultured as per ATCC recommendations. Imaging assay: Cells were plated in glass bottomed 96 well imaging plates, at a density of 1,000 cells per well, and were allowed to attach overnight. Cells (with exception of 3 control wells) were treated with 50 pm TGF-β. Along with the TGF-β test compounds 1-5 were added in at various doses, and a set of wells was treated with a known TGF-β inhibitor SB431542 at 1 μM.
In the absence of TGF-β, NMuMG cells form an epithelial shape; incubation with 50 pM TGF-β for 72 h induces a more fibroblast-like, spindle shaped morphology indicative of mesenchymal cells (FIGS. 3A-3D). […] Nine concentrations (160-0.625 nM) of compounds 1-5 were tested for their ability to impact TGF-β signaling in NMuMG cells.

The next assay concerns C. elegans. The experiment in a line: C. elegans assay (development and body length). It counts as in vivo. The settings on record: three concentrations spanning 1 μM→100 μM. Here is the method: Synchronized cultures of C. elegans were obtained using the following procedure: a mixed population of worms containing many gravid adults was washed off of two 10 cm NGM plates using distilled water. C. elegans were pelleted at 1000 g in a 15 mL conical tube and the supernatant was discarded. A mix of 3 mL distilled water, 1 mL bleach, and 1 mL 1 M NaOH was added. The tube was inverted for several minutes until it could be observed that the gravid adults had released their eggs. The eggs were pelleted at 1000 g, washed three times with distilled water and suspended in 10 mL of M9 (3.0 g KH2PO4, 6.0 g Na2HPO4, 0.5 g NaCl, 1.0 g NH4Cl into 1 L distilled water). The egg suspension was rotated overnight in a 50 mL conical tube during which the embryos hatched and arrested at the L1 stage. The C. elegans were washed twice and diluted with M9 to reach an approximate concentration of 20 worms/10 μL. Each well in a 96-well plate was prepared by adding 10 μL worm suspension, 0.5 μg OP50 E. coli, 1 μL DMSO (control) or 1 μL DMSO with compounds, and brought to a final volume of 100 μL with M9 plus cholesterol (5 μg/mL). The plates were incubated in a humidified box at 23° C. for 72 hours. To immobilize worms to measure body length the worms were killed by immersing the 96-well plate in a 70° C. water bath for several minutes. Each experiment was performed in triplicate within each plate. […]

Six compounds from patent publication US10889551B2, “Biemamides and related scaffolds as inhibitors of transforming growth factor-beta signaling” (Wisconsin Alumni Research Foundation, priority 2018, dated 2021) can be followed below.

As a reminder, the IC50 is the concentration that inhibits the measured activity by half.

In the case of Biemamide C [Compound 3], the IC50 at TGF-β signaling was found to be 0.0515 µM.
On the same count and under the same terms, to Biemamide D [Compound 4] belongs 0.102 µM; to Biemamide B [Compound 2], 0.0187 µM.
With `NC(=O)c1ccc(-c2nc(-c3ccc4c(c3)OCO4)c(-c3ccccn3)[nH]2)cc1` [SB431542, reference compound], the “inhibition of TGF-β-induced EMT (cell morphology), positive control” value in the assay with NMuMG epithelial cells (1 μM) is listed as “blocked TGF-β-induced transition of the NMuMG epithelial cells into mesenchymal cells”. Besides, the IC50 in the assay on TGF-β signaling was 0.411 µM. Further, the C. elegans size entry with C. elegans is given as “did not alter C. elegans size”.
On to Biemamide A [Compound 1], for which the “inhibition of TGF-β-induced EMT (cell morphology)” value in the assay with NMuMG epithelial cells (nine concentrations 160-0.625 nM (FIG. 3C: 160 nM compound 1)) was “cells maintained their epithelial phenotype”. The IC50 on TGF-β signaling was 0.0515 µM.
Turning to Biemamide E [Compound 5], the IC50 at TGF-β signaling was found to be 0.0832 µM.
